Laboratory results reported in patent US5614408A, “Monoclonal antibodies to potato, tomato, and eggplant glycoalkaloids and assays for the same” (priority 1995, dated 1997).
“Also recorded” adds a separate entry of the source.

Legend:
Type in all cases: binding, mouse
[1] = system: monoclonal antibody Sol-129; assay: competitive inhibition ELISA (c-ELISA), monoclonal antibody Sol-129; conditions: for binding by Sol-129 / relative affinity of Sol-129: in words; for IC50: Sol-129 (IgG1), ± one standard deviation
Method: (§1) Five, 6 month old BALB/c mice were injected with 50 μl of the solanidine-KLH conjugate mixed 1:1 with Ribi adjuvant (Ribi Immunochem Research Inc., Hamilton, Mont.). The mice received half the dose intraperitoneally and half intramuscularly every other week for a total of three injections. One month later, and 4 days prior to fusion, a selected mouse was given an intraperitoneal injection of 50 μl of solanidine-KLHconjugate in sterile saline. The spleen was removed and the splenocytes fused with SP2/O myeloma cells as described by Stanker et al. (1986, J. Immunol., 136:4174-4180), the contents of which are incorporated by reference herein. The fused cells were plated over 30 96-well microculture plates previously coated with mouse peritoneal exudate cells (macrophage) and grown under conditions described by Elissalde et al. (1993, J. Agric. Food Chem., 41:2167-2171), the contents of which are also incorporated by reference herein.
(§2) db-ELISA. A modification of a direct-binding ELISA described by Stanker et al. (1993, J. Agric. Food Chem., 41:1332-1336), the contents of which are incorporated by reference herein, was used to screen the culture fluids from the growing hybridomas for antibodies to solanidine. Microtiter plates (Nunc Maxisorb, Roskilde, Denmark; or Costar high binding plates, Costar Corp., Wilmington, Mass.) were coated with SOL-BSA by addition of 100 μl/well of a 1 μg/ml solution of SOL-BSA in distilled water. The SOL-BSA was incubated in uncovered plates at 37° C. for 18 hr to evaporate the liquid and allow the SOL-BSA to coat the bottom of the microtiter wells. The "coated" plates were then stored in sealed plastic bags at 4° C. and used within 2 weeks. Nonreacted sites on the plates were blocked by adding 400 μl of a 3% solution of nonfat dry milk (NFDM) in assay buffer (0.1M Tris, 0.15M NaCl, 10 mg/ml nonfat dry milk, 0.001% Tween 20, 0.02% sodium azide) and incubating the plates at room temperature for 1 hr. The blocking solution was then discarded and 100 μl of the hybridoma supernatant(s) or anti-solanidine Mab (from ascites fluid) was added, and the plates incubated for 1 hr at 37° C. After incubation, the plates were washed with a solution of 0.05% TWEEN-20 in water, and peroxidase conjugated goat anti-mouse antiserum (Sigma Inc., St. Louis, Mo.), diluted 1:500 in assay buffer, was then added to each well. Following a second 1 hr incubation at 37° C., the plates were washed as described above. Finally, the substrate, 2,2'-azino-bis(ethylbenzthiazole-6-sulfonic acid) (ABTS), was added. Absorbance was measured at 405 nm and the resulting data analyzed by computer using an Excel (Microsoft, Redmond, Wash.) spreadsheet program.
(§3) c-ELISA. The competitive inhibition ELISA for solanidine and other glycoalkaloids was carried out as previously described for other compounds by Stanker et al. (1993, ibid). Briefly, to each well of an antigen (glycoalkaloid or aglycone) coated, non-fat-milk-blocked, microtiter plate prepared as described in the db-ELISA was added 100 μl of assay buffer. Competitors (free solanidine and other glycoalkaloids and aglycones, and four structurally related steroids cholesterol, digitonin, βsitosterol, and stigmasterol, shown in Table 1) dissolved in 100 μl of assay buffer were added to the microassay plate and serially diluted (a 2-fold series). Next, 100 μl of assay buffer containing a predetermined amount of anti-solanidine monoclonal antibody prepared above was added to each well. The amount of anti-alkaloid antibody added was the concentration (dilution from tissue culture supernatant) resulting in approximately 50% of maximum binding or signal in a direct-binding ELISA where no competitor was present. The plates were sealed with plastic wrap, incubated for 1 hr at 37° C., and then processed as described in the db-ELISA to detect bound antibody. […]

[2] = system: monoclonal antibody Sol-8; assay: competitive inhibition ELISA (c-ELISA), monoclonal antibody Sol-8; conditions: Sol-8 (IgG2a); ± one standard deviation
Method: as §1, §2, §3

[3] = system: monoclonal antibody Sol-48; assay: competitive inhibition ELISA (c-ELISA), monoclonal antibody Sol-48; conditions: Sol-48 (IgG2a); ± one standard deviation
Method: as §1, §2, §3

[4] = system: monoclonal antibody Sol-54; assay: competitive inhibition ELISA (c-ELISA), monoclonal antibody Sol-54; conditions: Sol-54 (IgG2a); ± one standard deviation
Method: as §1, §2, §3

[5] = system: monoclonal antibody Sol-55; assay: competitive inhibition ELISA (c-ELISA), monoclonal antibody Sol-55; conditions: Sol-55 (IgG2a); ± one standard deviation
Method: as §1, §2, §3

[6] = system: monoclonal antibody Sol-59; assay: competitive inhibition ELISA (c-ELISA), monoclonal antibody Sol-59; conditions: Sol-59 (IgG2a); ± one standard deviation
Method: as §1, §2, §3

[7] = system: monoclonal antibody Sol-67; assay: competitive inhibition ELISA (c-ELISA), monoclonal antibody Sol-67; conditions: Sol-67 (IgG1); ± one standard deviation
Method: as §1, §2, §3

[8] = system: monoclonal antibody Sol-68; assay: competitive inhibition ELISA (c-ELISA), monoclonal antibody Sol-68; conditions: Sol-68 (IgG1); ± one standard deviation
Method: as §1, §2, §3

[9] = system: monoclonal antibody Sol-71; assay: competitive inhibition ELISA (c-ELISA), monoclonal antibody Sol-71; conditions: Sol-71 (IgG2a); ± one standard deviation
Method: as §1, §2, §3

[10] = system: monoclonal antibody Sol-91; assay: competitive inhibition ELISA (c-ELISA), monoclonal antibody Sol-91; conditions: Sol-91 (IgG2a); ± one standard deviation
Method: as §1, §2, §3

[11] = system: monoclonal antibody Sol-106; assay: competitive inhibition ELISA (c-ELISA), monoclonal antibody Sol-106; conditions: Sol-106 (IgG2a); ± one standard deviation
Method: as §1, §2, §3

[12] = system: eleven monoclonal antibodies; assay: competitive inhibition ELISA (c-ELISA), all eleven monoclonal antibodies; conditions: in words
Method: as §1, §2
c-ELISA. […]

| Compound | binding by Sol-129 [1] | IC50 [2] | IC50 [3] | IC50 [4] | IC50 [5] | IC50 [6] | IC50 [7] | IC50 [8] | IC50 [9] | IC50 [10] | IC50 [11] | IC50 [1] | relative affinity of Sol-129 [1] | cross-reaction of the antibodies [12] |
| --- | --- | --- | --- | --- | --- | --- | --- | --- | --- | --- | --- | --- | --- | --- |
| C[C@@H]1CC[C@@]2(NC1)O[C@H]1C[C@H]3[C@@H]4CC=C5C[C@@H](O)CC[C@]5(C)[C@H]4CC[C@]3(C)[C@H]1[C@@H]2C [solasodine] | binds |  |  |  |  |  |  |  |  |  |  |  |  |  |
| C[C@H]1CC[C@@H]2[C@@H](C)[C@H]3[C@H](C[C@H]4[C@@H]5CC=C6C[C@@H](O[C@@H]7O[C@H](CO)[C@H](O[C@@H]8O[C@@H](C)[C@H](O)[C@@H](O)[C@H]8O)[C@H](O)[C@@H]7O[C@@H]7O[C@@H](C)[C@@H](O)[C@@H](O)[C@H]7O)CC[C@]6(C)[C@H]5CC[C@]34C)N2C1 [α-chaconine] |  | 294 ± 34 ppb | 323 ± 125 ppb | 165 ± 58 ppb | 204 ± 19 ppb | 25 ± 2.1 ppb | 20.2 ppb | nc (no competition at 10,000 ppb) | nc (no competition at 10,000 ppb) | 82 ± 5.2 ppb | 54 ± 13 ppb | 2.8 ± 0.2 ppb | high affinity |  |
| C[C@H]1CC[C@@H]2[C@@H](C)[C@H]3[C@H](C[C@H]4[C@@H]5CC=C6C[C@@H](O[C@@H]7O[C@H](CO)[C@H](O)[C@H](O[C@@H]8O[C@H](CO)[C@@H](O)[C@H](O)[C@H]8O)[C@H]7O[C@@H]7O[C@@H](C)[C@H](O)[C@@H](O)[C@H]7O)CC[C@]6(C)[C@H]5CC[C@]34C)N2C1 [α-solanine] |  | 253 ± 64 ppb | 436 ± 135 ppb | 215 ± 32 ppb | 118 ± 18 ppb | 35 ± 8 ppb | 27.8 ppb | nc (no competition at 10,000 ppb) | nc (no competition at 10,000 ppb) | 104 ± 18 ppb | 49 ± 8 ppb | 2.6 ± 0.25 ppb | high affinity |  |
| C[C@H]1CC[C@]2(NC1)O[C@H]1C[C@H]3[C@@H]4CC[C@H]5C[C@@H](O)CC[C@]5(C)[C@H]4CC[C@]3(C)[C@H]1[C@@H]2C [tomatidine] | specifically bound; also recorded: Sol-129 was the only antibody capable of binding | nc (no competition at 10,000 ppb) | nc (no competition at 10,000 ppb) | nc (no competition at 10,000 ppb) | nc (no competition at 10,000 ppb) | nc (no competition at 10,000 ppb) | nc (no competition at 10,000 ppb) | nc (no competition at 10,000 ppb) | nc (no competition at 10,000 ppb) | nc (no competition at 10,000 ppb) | nc (no competition at 10,000 ppb) | 10.4 ± 2.0 ppb |  |  |
| CC[C@H](CC[C@@H](C)[C@H]1CC[C@H]2[C@@H]3CC=C4C[C@@H](O)CC[C@]4(C)[C@H]3CC[C@]12C)C(C)C [β-sitosterol] |  | nc (no competition at 10,000 ppb) |  | nc (no competition at 10,000 ppb) | nc (no competition at 10,000 ppb) | nc (no competition at 10,000 ppb) | nc (no competition at 10,000 ppb) | nc (no competition at 10,000 ppb) | nc (no competition at 10,000 ppb) | nc (no competition at 10,000 ppb) | nc (no competition at 10,000 ppb) | nc (no competition at 10,000 ppb) |  | None of the eleven antibodies cross-reacted |
| C[C@@H]1CC[C@@]2(NC1)O[C@H]1C[C@H]3[C@@H]4CC=C5C[C@@H](O[C@@H]6O[C@H](CO)[C@H](O)[C@H](O[C@@H]7O[C@H](CO)[C@@H](O)[C@H](O)[C@H]7O)[C@H]6O[C@@H]6O[C@@H](C)[C@H](O)[C@@H](O)[C@H]6O)CC[C@]5(C)[C@H]4CC[C@]3(C)[C@H]1[C@@H]2C [solasonine] | Sol-129 was the only antibody capable of binding | nc (no competition at 10,000 ppb) | nc (no competition at 10,000 ppb) | nc (no competition at 10,000 ppb) | nc (no competition at 10,000 ppb) | nc (no competition at 10,000 ppb) | nc (no competition at 10,000 ppb) | nc (no competition at 10,000 ppb) | nc (no competition at 10,000 ppb) | nc (no competition at 10,000 ppb) | nc (no competition at 10,000 ppb) | 36 ± 3.2 ppb | high affinity |  |
| C[C@H]1CC[C@@H]2[C@@H](C)[C@H]3[C@H](C[C@H]4[C@@H]5CC=C6C[C@@H](O)CC[C@]6(C)[C@H]5CC[C@]34C)N2C1 [solanidine] |  | 46 ± 6.4 ppb | 18 ± 4.4 ppb | 131 ± 53 ppb | 60 ± 19 ppb | 16 ± 1.7 ppb | 15.6 ppb | 489 ppb | 1020 ppb | 36 ± 5.7 ppb | 14 ppb | 2.5 ± 0.35 ppb | high affinity; also recorded: lowest relative affinity |  |
| C[C@H]1CC[C@]2(NC1)O[C@H]1C[C@H]3[C@@H]4CC[C@H]5C[C@@H](O[C@@H]6O[C@H](CO)[C@H](O[C@@H]7O[C@H](CO)[C@@H](O)[C@H](O[C@@H]8OC[C@@H](O)[C@H](O)[C@H]8O)[C@H]7O[C@@H]7O[C@H](CO)[C@@H](O)[C@H](O)[C@H]7O)[C@H](O)[C@H]6O)CC[C@]5(C)[C@H]4CC[C@]3(C)[C@H]1[C@@H]2C [α-tomatine] | specifically bound; also recorded: Sol-129 was the only antibody capable of binding | nc (no competition at 10,000 ppb) | nc (no competition at 10,000 ppb) | nc (no competition at 10,000 ppb) | nc (no competition at 10,000 ppb) | nc (no competition at 10,000 ppb) | nc (no competition at 10,000 ppb) | nc (no competition at 10,000 ppb) | nc (no competition at 10,000 ppb) | nc (no competition at 10,000 ppb) | nc (no competition at 10,000 ppb) | 5.4 ± 3.5 ppb | approximately the same affinity as the potato glycoalkaloids |  |
